Experimental data as given in patent US20050054629A1, “Compounds and methods of treating cell proliferative diseases” (priority 2002, published 2005).

How the values were obtained:
[1] = system: MCF-7 breast carcinoma; experiment: Cytotoxicity assay (MTT), 6 days; assay type: cell-based; conditions: Homo sapiens, MCF7, 144 h, 6 days of treatment, read-out: Toxicity 6d (IC 50, μM) MCF7
From the text: (§1) Four human tumoral cell lines, namely HCT116 colon adenocarcinoma, H460 lung carcinoma, MCF-7 and MDA-MB-231 breast carcinoma cell lines, and three immortalized but non tumorigenic cell lines, namely NIH3T3 mouse fibroblasts and human breast-derived MCF10-A and MRC-5 were purchased at ATCC and cultured according to their recommendations. In order to determine the cytotoxicity associated with one compound, a microculture tetrazolium assay (MTT), as described by Carmichael et al (Cancer Res, 1996) with modifications, was used. Briefly, 5.10^3 or 2.10^4 cells were seeded per well in 24-well plates 24 hours before drug addition. Cells were treated with 0, 1, 10, 17.5, 25 and 50 μM of compound solubilized in DMSO, adjusting the total volume of DMSO (Dimethylsulfoxide) to 1%. Forty-eight hours or 6 days after treatment, the medium was replaced by PBS containing 0.5 mg/ml MTT (Sigma) and cells were incubated for 3 more hours at 37° C. before solubilization of formazan crystals in 100% DMSO. Absorbance was measured using a spectrophotometer at a wavelength of 550 nm. Cell surviving fraction and 50% inhibitory concentration were calculated. All assays were performed in triplicate.

[2] = system: MDA-MB-231 breast carcinoma; experiment: Cytotoxicity assay (MTT), 6 days; assay type: cell-based; conditions: Homo sapiens, MDA-MB-231, 144 h, 6 days of treatment, read-out: Toxicity 6d (IC 50, μM) MDA231
From the text: as §1

[3] = system: H460 lung carcinoma; experiment: Cytotoxicity assay (MTT), 6 days; assay type: cell-based; conditions: Homo sapiens, NCI-H460, 144 h, 6 days of treatment, read-out: Toxicity 6d (IC 50, μM) H460
From the text: as §1

[4] = system: HCT116 colon adenocarcinoma; experiment: Cytotoxicity assay (MTT), 6 days; assay type: cell-based, human; conditions: Homo sapiens, HCT-116, 144 h, 6 days of treatment, read-out: Toxicity 6d (IC 50, μM) HCT116
From the text: as §1

[5] = system: NIH3T3 mouse fibroblasts; experiment: Cytotoxicity assay (MTT), 6 days; assay type: cell-based; conditions: NIH3T3, 144 h, 6 days of treatment, read-out: Toxicity 6d (IC 50, μM) NIH3T3
From the text: as §1

[6] = system: cell architecture; experiment: Cell architecture modification, phase contrast; assay type: cell-based; parameters: key: −: no effect of the compound was observed; +: an effect of the compound was observed
[7] = system: MDA-MB-231 cells; experiment: Matrigel invasion assay (Boyden chamber); assay type: cell-based, human; conditions: MDA-MB-231, Boyden chamber, matrigel
Method: Chemoinvasion assay was performed in Boyden chamber as described by Albini et al (Cancer Res, 1987) with some modifications. Polycarbonate membranes with 8 μm pores were coated with matrigel (125 μg/cm^2) at room temperature for 48 h. Two hours before experiments, the matrix was […] with serum-free medium containing 0.1% BSA.
One day after seeding, 10^6 MDA-MB-231 cells were treated overnight with different concentrations of compounds (1, 10, 17.5, 25 and 50 μM). Cells were collected with Versene (Invitrogen), counted with trypan blue exclusion, rinsed twice in serum-free medium containing 0.1% BSA and resuspended in serum-free medium containing 0.1% BSA plus the appropriate concentration of compound. 10^5 treated cells were placed in the upper chamber. Medium containing 10% of FBS plus the appropriate concentration of compound was placed in the lower chamber as a chemoattractant. The Boyden chamber was incubated 6 hours at 37° C. before the cells were fixed and stained with Diff-Quick (Dade-Berhing). Cells on the upper part of the filters were removed using a cotton swab. Cells on the underside of the filters were visualised and counted under light microscope.

SMILES	melting point	IC50 [1]	IC50 [2]	IC50 [3]	IC50 [4]	also measured
C/C=C/c1oc(CO)cc(=O)c1OCCCCCOc1ccc(C#N)c(F)c1 [EHT 4112, (E)-2-Fluoro-4-[5-(6-hydroxymethyl-4-oxo-2-propenyl-4H-pyran-3-yloxy)-pentyloxy]-benzonitrile]	123 to 125 °C					
O=C(O)c1cc(=O)c(OCCCCCOc2cccc(Cl)c2)co1 [EH15700, 5-[5-(3-Chlorophenyloxy)pentyloxy]-4-oxo-4H-pyran-2-carboxylic acid]		> 50 µM	20 µM	> 50 µM	> 50 µM	
C/C=C/c1oc(C(=O)O)cc(=O)c1OCCCCCOc1ccccc1CCC [EH15301, (E)-2-(Propen-1-yl)-3-[5-(2-propylphenyloxy)pentyloxy]-4-oxo-4H-pyran-6-carboxylic acid]		> 50 µM	> 50 µM	> 50 µM	> 50 µM	IC50 [5]: > 50 µM
O=C(O)c1cc(=O)c(OCCCCCOc2ccc(Cl)cc2)co1 [EH17600, 5-[5-(4-Chlorophenyloxy)pentyloxy]-4-oxo-4H-pyran-2-carboxylic acid]		17.5 µM	> 25 µM	> 50 µM	> 50 µM	
C/C=C/c1oc(C(=O)O)cc(=O)c1OCCCCCOc1ccc(Cl)c(Cl)c1CCC [EH22501, (E)-3-[5-(3,4-Dichloro-2-propylphenyloxy)pentyloxy]-2-(propen-1-yl)-4-oxo-4H-pyran-6-carboxylic acid]		> 50 µM	50 µM	> 50 µM	> 50 µM	IC50 [5]: > 50 µM
CCCc1c(OCCCCCOc2coc(C(=O)O)cc2=O)ccc(Cl)c1Cl [EH27900]		40 µM	> 25 µM	> 50 µM	> 50 µM	
C/C=C/c1oc(CO)cc(=O)c1OCCCCCOc1cc(C(F)(F)F)cc(C(F)(F)F)c1 [EHT 5403, (E)-3-[5-(3,5-Bis-trifluoromethyl-phenoxy)-pentyloxy]-6-hydroxymethyl-2-propenyl-4H-pyran-4-one]	90 to 92 °C					
C/C=C/c1oc(CO)cc(=O)c1OCCCCCOc1cc(Cl)cc(Cl)c1CCC [EHT 9916, (E)-3-[5-(3,5-Dichloro-2-propyl-phenoxy)-pentyloxy]-6-hydroxymethyl-2-propenyl-4H-pyran-4-one]	91 to 93 °C					
O=C(OCc1cc(=O)c(OCCCCCn2ccc3ccccc32)co1)c1ccccc1 [EHT 6517, Benzoic acid 5-(5-indol-1-yl-pentyloxy)-4-oxo-4H-pyran-2-ylmethyl ester]	71 to 73 °C					
C/C=C/c1oc(C(=O)O)cc(=O)c1OCCCCCOc1ccc(Cl)c(Cl)c1 [EH10501]		> 50 µM	> 50 µM	> 50 µM	> 50 µM	IC50 [5]: > 50 µM
C/C=C/c1oc(CO)cc(=O)c1OCCCCCOc1ccc(F)c(F)c1 [EHT 8307]	86 to 87 °C					
C/C=C/c1oc(C(=O)O)cc(=O)c1OCCCCCOc1cccc(Cl)c1 [EH18401, (E)-3-[5-(3-Chlorophenyloxy)pentyloxy]-2-(propen-1-yl)-4-oxo-4H-pyran-6-carboxylic acid]		> 50 µM	> 50 µM	> 50 µM	> 50 µM	IC50 [5]: > 50 µM
O=C(OCc1cc(=O)c(OCCCCCn2ccc3ccccc32)co1)c1ccc(Cl)cc1 [EHT 0078, 4-Chloro-benzoic acid 5-(5-indol-1-yl-pentyloxy)-4-oxo-4H-pyran-2-ylmethyl ester]	215 to 220 °C					
C=CCc1cc(Cl)ccc1OCCCCCOc1coc(CO)cc1=O [EHT 5431, 5-[5-(2-Allyl-4-chloro-phenoxy)-pentyloxy]-2-hydroxymethyl-4H-pyran-4-one]	98 to 100 °C					
CCCc1cc(Cl)ccc1OCCCCCOc1coc(CO)cc1=O [EHT 6152, 5-[5-(4-Chloro-2-propyl-phenoxy)pentyloxy]-2-hydroxymethyl-4H-pyran-4-one]	92 to 94 °C					
O=C(O)c1cc(=O)c(OCCCCCOc2ccc(Cl)c(Cl)c2)co1 [EH6600, 5-[5-(3,4-Dichlorophenyloxy)pentyloxy]-4-oxo-4H-pyran-2-carboxylic acid]		30 µM	> 25 µM	> 50 µM	> 50 µM	
O=C(OCc1cc(=O)c(OCCCCCn2ccc3ccccc32)co1)c1ccoc1 [EHT 4167, Furan-3-carboxylic acid 5-(5-indol-1-yl-pentyloxy)-4-oxo-4H-pyran-2-ylmethyl ester]	103 to 105 °C (dec.)					
C=CCc1c(Cl)cc(Cl)cc1OCCCCCOc1coc(CO)cc1=O [EHT 6978, 5-[5-(2-Allyl-3,5-dichloro-phenoxy)-pentyloxy]-2-hydroxymethyl-4H-pyran-4-one]	59 to 61 °C					
O=C(Nc1ccc(Cl)cc1)OCc1cc(=O)c(OCCCCCn2ccc3ccccc32)co1 [EHT 2232, (4-Chloro-phenyl)-carbamic acid 5-(5-indol-1-yl-pentyloxy)-4-oxo-4H-pyran-2-ylmethyl ester]	170 to 171 °C					
O=C(OCc1cc(=O)c(OCCCCCn2ccc3ccccc32)co1)C1CCCCC1 [EHT 2253, Cyclohexanecarboxylic acid 5-(5-indol-1-yl-pentyloxy)-4-oxo-4H-pyran-2-ylmethyl ester]	62 to 66 °C					
CCCc1c(Cl)cc(Cl)cc1OCCCCCOc1coc(CO)cc1=O [EHT 2991]	77 to 79 °C					
CCCc1ccccc1OCCCCCOc1coc(C(=O)O)cc1=O [EH26900, 5-[5-(2-Propylphenyloxy)pentyloxy]-4-oxo-4H-pyran-2-carboxylic acid]		> 50 µM	> 50 µM	> 50 µM	> 50 µM	
C/C=C/c1oc(C(=O)O)cc(=O)c1OCCCCCOc1ccc(Cl)cc1 [EH17401, (E)-3-[5-(4-Chlorophenyloxy)pentyloxy]-2-(propen-1-yl)-4-oxo-4H-pyran-6-carboxylic acid]		> 50 µM	> 50 µM	> 50 µM	> 50 µM	IC50 [5]: > 50 µM
CCNC(=O)OCc1cc(=O)c(OCCCCCn2ccc3ccccc32)co1 [EHT 1120, Ethyl-carbamic acid 5-(5-indol-1-yl-pentyloxy)-4-oxo-4H-pyran-2-ylmethyl ester]	81 to 83 °C					
O=C(Nc1ccccc1)OCc1cc(=O)c(OCCCCCn2ccc3ccccc32)co1 [EHT 4902, Phenyl-carbamic acid 5-(5-indol-1-yl-pentyloxy)-4-oxo-4H-pyran-2-ylmethyl ester]	150 °C (dec.)					
O=C(O)c1cc(=O)c(OCCCCOc2ccc(Cl)c(Cl)c2)co1 [EH20700, 5-[4-(3,4-Dichlorophenyloxy)butyloxy] oxo-4H-pyran-2-carboxylic acid]		> 50 µM	> 50 µM	> 50 µM	> 50 µM	
CCOc1ccccc1OCCCCCOc1coc(CO)cc1=O [EH18601, 5-[5-(2-Ethyloxyphenyloxy)pentyloxy]-2-(hydroxymethyl)-4H-pyran-4-one]		15 µM	> 50 µM	25 µM	50 µM	IC50 [5]: > 50 µM; Cell architecture modification phase contrast [6]: −; Invasion [7]: No effect
